Our source for the IC50 values is ChEMBL document CHEMBL3639041, “Respiratory formulations and compounds for use therein” (2015).

In experiment [1] the target is T1, Mitogen-activated protein kinase 12 (Homo sapiens, UniProt P53778).
T1 sequence (P53778 whole entry): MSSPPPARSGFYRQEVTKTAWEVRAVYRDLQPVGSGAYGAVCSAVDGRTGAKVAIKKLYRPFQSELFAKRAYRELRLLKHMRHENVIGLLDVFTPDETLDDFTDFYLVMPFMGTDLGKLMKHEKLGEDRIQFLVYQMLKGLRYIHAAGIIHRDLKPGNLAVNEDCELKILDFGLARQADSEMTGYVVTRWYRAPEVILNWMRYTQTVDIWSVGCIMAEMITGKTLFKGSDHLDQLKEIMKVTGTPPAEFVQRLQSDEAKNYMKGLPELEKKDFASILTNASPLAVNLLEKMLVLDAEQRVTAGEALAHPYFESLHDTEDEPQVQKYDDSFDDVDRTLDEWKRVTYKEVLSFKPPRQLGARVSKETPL
Description: (§1) Fluorescence Resonance Energy Transfer (FRET) Assay: The enzyme inhibitory activity of test compounds was determined by fluorescence resonance energy transfer (FRET) using synthetic peptides labelled with both donor and acceptor fluorophores (Z-LYTE, Invitrogen). Recombinant, phosphorylated p38 MAPK (MAPK12:Millipore) was diluted in HEPES buffer, mixed with compound at the desired final concentrations and incubated for 2 hr at RT. The FRET peptide (2 uM) and ATP (100 uM) were next added to the enzyme/compound mixture and incubated for 1 hr. Development reagent (protease) was added for 1 hr prior to detection in a fluorescence microplate reader. The site-specific protease only cleaves non-phosphorylated peptide and eliminates the FRET signal. Phosphorylation levels of each reaction were calculated using the ratio of coumarin emission (donor) over fluorescein emission (acceptor) with […].

The target of experiment [2] is Tyrosine-protein kinase HCK (Homo sapiens, UniProt P08631). The description is as §1.
Experiment [3] has as its target Proto-oncogene tyrosine-protein kinase Src (Homo sapiens, UniProt P12931). The experiment is described as §1.

With `Cc1ccc(-n2nc(C(C)C)cc2NC(=O)Nc2ccc(Oc3ccnc4[nH]c(=O)cnc34)c3ccccc23)cc1`, the IC50 was 39 nM in experiment [1], 4 nM in experiment [2] and 8 nM in experiment [3].
Take `CC(C)(C)c1cc(NC(=O)Nc2ccc(Oc3ccnc4[nH]c(=O)cnc34)c3ccccc23)n(-c2ccc(Cl)c(Cl)c2)n1`: the values for the IC50 in experiment [1] and in experiment [3] were 89 nM and 6 nM, respectively.
As for `Cc1ccc(-n2nc(C(C)(C)C)cc2NC(=O)Nc2ccc(Oc3ccnc4[nH]c(=O)cnc34)c3ccccc23)s1`, the IC50 is 41 nM in experiment [1] and 3 nM in experiment [2].

A word on the IC50: it is the concentration at which inhibition is half-maximal.
